Assays:
Type in all cases: in vivo
[1] = test system: Johnsongrass (Sorghum halepense, SORHA); experiment: Pre-emerge greenhouse herbicide test, phytotoxicity rating; settings: 14 days after application, rating scale 0-100
Excerpt: (§1) A standard greenhouse herbicide activity screening system was used to evaluate the herbicidal efficacy and crop safety of these test compounds. Six broadleaf weed species including redroot pigweed (Amaranthus retroflexus, AMARE), velvetleaf (Abutilon theophrasti, ABUTH), sicklepod (Cassia obtusifolia, CASOB), ivyleaf morningglory (Ipomoea hederacea, IPOHE), lambsquarters (Chenopodium album, CHEAL) and common ragweed (Ambrosia artemisiifolia L., AMBEL) were used as test species. Four grass weed species including green foxtail (Setaria viridis, SETVI), barnyardgrass (Echinochloa crusgalli, ECHCG), Johnsongrass (Sorghum halepense, SORHA), and large crabgrass (Digitaria sanguinalis, DIGSA) were also used. In addition, three crop species, field corn (Zea mays L., var. Dekalb 535, CORN), soybean (Glycine max L., var. Pella 86, SOY), and upland rice (Oryza sp., var.Tebonnet, RICE) were included.
(§2) All plants were grown in 10 cm square plastic pots which were filled with a sandy loam soil mix. For preemerge tests, seeds were planted one day prior to application of the test compounds. Immediately after application, test units of the pre-emerge applications were watered at the soil surface to incorporate the test materials. Subsequently, these test units were bottom-watered.
(§3) All test compounds were dissolved in acetone and applied to the test units in a volume of 187 l/ha. Test materials were applied at rates ranging from 125 g ai/ha to 1000 g ai/ha using a track sprayer equipped with a TJ8001E even flow flat fan spray nozzle. Plants were arranged on a shelf so that the top of the canopy (post-emerge) or top of the soil surface (pre-emerge) was 40-45 cm below the nozzle. Pressurized air was used to force the test solution through the nozzle as it was mechanically advanced (via electrically driven chain drive) over the top of all test plants/pots. This application simulates a typical commercial field herbicide application.
(§4) At 14 days after application of the test materials, phytotoxicity ratings were recorded. A rating scale of 0-100 was used as previously described in Research Methods in Weed Science, 2nd edition, B. Truelove, Ed., Southern Weed Science Society, Auburn University, Auburn, Ala., 1977. Briefly, “0” corresponds to no damage and “100” corresponds to complete death of all plants in the test unit. This scale was used both to determine efficacy against weed species and damage to crop species. Herbicide activity data for various compounds of this invention, which are shown by compound number in Tables 1-9, are shown in Tables 13 and 14.

[2] = test system: barnyardgrass (Echinochloa crusgalli, ECHCG); experiment: as above; settings: 14 days after application, rating scale 0-100
Excerpt: as §1, §2, §3, §4

[3] = test system: green foxtail (Setaria viridis, SETVI); experiment: as above; settings: 14 days after application, rating scale 0-100
Excerpt: as §1, §2, §3, §4

[4] = test system: ivyleaf morningglory (Ipomoea hederacea, IPOHE); experiment: as above; settings: 14 days after application, rating scale 0-100
Excerpt: as §1, §2, §3, §4

[5] = test system: lambsquarters (Chenopodium album, CHEAL); experiment: as above; settings: 14 days after application, rating scale 0-100
Excerpt: as §1, §2, §3, §4

[6] = test system: large crabgrass (Digitaria sanguinalis, DIGSA); experiment: as above; settings: 14 days after application, rating scale 0-100
Excerpt: as §1, §2, §3, §4

[7] = test system: redroot pigweed (Amaranthus retroflexus, AMARE); experiment: as above; settings: 14 days after application, rating scale 0-100
Excerpt: as §1, §2, §3, §4

[8] = test system: sicklepod (Cassia obtusifolia, CASOB); experiment: as above; settings: 14 days after application, rating scale 0-100
Excerpt: as §1, §2, §3, §4

[9] = test system: velvetleaf (Abutilon theophrasti, ABUTH); experiment: as above; settings: 14 days after application, rating scale 0-100
Excerpt: as §1, §2, §3, §4

[10] = test system: field corn (Zea mays L., var. Dekalb 535, CORN); experiment: Pre-emerge greenhouse test, crop damage rating; settings: 14 days after application, rating scale 0-100
Procedure, shortened: (§5)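 Seeds sown in sandy loam one day before track-sprayer application of acetone solutions at 125–1000 g ai/ha (187 l/ha), then surface-watered to incorporate and bottom-watered. Injury scored visually at 14 days on a 0–100 scale (0 no damage, 100 complete death).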

[11] = test system: upland rice (Oryza sp., var.Tebonnet, RICE); experiment: Pre-emerge greenhouse test, crop damage rating; settings: 14 days after application, rating scale 0-100
Procedure, shortened: as §5

[12] = test system: soybean (Glycine max L., var. Pella 86, SOY); experiment: Pre-emerge greenhouse test, crop damage rating; set-up: key to SOY crop damage rating: 0 = no damage, 100 = complete death of all plants; settings: 14 days after application, rating scale 0-100
Procedure, shortened: as §5

[13] = test system: common ragweed (Ambrosia artemisiifolia L., AMBEL); experiment: Post-emerge greenhouse herbicide test, phytotoxicity rating; settings: 14 days after application, scale 0-100
Excerpt: as §1
as §3, with “Test materials were applied at rates ranging from 125 g ai/ha to 1000 g ai/ha using a track sprayer equipped with a TJ8001E even flow flat fan spray nozzle.” left out
In the post-emerge test, a commercial non-ionic surfactant was also included (0.25% v/v) to enhance wetting of the leaf surfaces Qf target plants at rates ranging from 63 g ai/ha to 1000 g ai/ha. For post-emerge tests, seeds were planted 8-21 days prior to the test to allow emergence and good foliage development prior to application of the test substances. At the time of the post-emerge application, plants of all species were usually at the 2-3 leaf stage of development. Post-emerge test units were always bottom-watered.
as §4

[14] = test system: Johnsongrass (Sorghum halepense, SORHA); experiment: as above; settings: 14 days after application, scale 0-100
Procedure, shortened: (§6)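 Plants at the 2-3 leaf stage, sown 8-21 days earlier, were track-sprayed post-emergence with compound in acetone plus 0.25% v/v non-ionic surfactant at 63-1000 g ai/ha (187 l/ha). Damage was rated at 14 days on a 0-100 scale (0 none, 100 all plants dead), for both crop injury and weed control.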

[15] = test system: barnyardgrass (Echinochloa crusgalli, ECHCG); experiment: as above; settings: 14 days after application, scale 0-100
Procedure, shortened: as §6

[16] = test system: green foxtail (Setaria viridis, SETVI); experiment: as above; settings: 14 days after application, scale 0-100
Procedure, shortened: as §6

[17] = test system: ivyleaf morningglory (Ipomoea hederacea, IPOHE); experiment: as above; settings: 14 days after application, scale 0-100
Procedure, shortened: as §6

[18] = test system: lambsquarters (Chenopodium album, CHEAL); experiment: as above; settings: 14 days after application, scale 0-100
Procedure, shortened: as §6

[19] = test system: large crabgrass (Digitaria sanguinalis, DIGSA); experiment: as above; settings: 14 days after application, scale 0-100
Procedure, shortened: as §6

[20] = test system: redroot pigweed (Amaranthus retroflexus, AMARE); experiment: as above; settings: 14 days after application, scale 0-100
Procedure, shortened: as §6

[21] = test system: sicklepod (Cassia obtusifolia, CASOB); experiment: as above; settings: 14 days after application, scale 0-100
Procedure, shortened: as §6

[22] = test system: velvetleaf (Abutilon theophrasti, ABUTH); experiment: as above; settings: 14 days after application, scale 0-100
Procedure, shortened: as §6

[23] = test system: field corn (Zea mays L., var. Dekalb 535, CORN); experiment: Post-emerge greenhouse test, crop damage rating; settings: 14 days after application, scale 0-100
Procedure, shortened: as §6

[24] = test system: upland rice (Oryza sp., var.Tebonnet, RICE); experiment: Post-emerge greenhouse test, crop damage rating; settings: 14 days after application, scale 0-100
Procedure, shortened: as §6

[25] = test system: soybean (Glycine max L., var. Pella 86, SOY); experiment: Post-emerge greenhouse test, crop damage rating; set-up: key to crop damage rating SOY: 0-100 scale: 0 = no damage, 100 = complete death of all plants; settings: 14 days after application, scale 0-100
Procedure, shortened: as §6

## CCOC(=O)C(C)Oc1ccc(Oc2cc(-n3c(=O)n4n(c3=S)CCCC4)c(F)cc2Cl)c(N)c1 (centres unmarked) [Compound 8-40]
[1]; Rate 125 g al/ha
  SORHA phytotoxicity rating: 0
[1]; Rate 250 g al/ha
  SORHA phytotoxicity rating: 0
[2]; Rate 125 g al/ha
  ECHCG phytotoxicity rating: 0
[2]; Rate 250 g al/ha
  ECHCG phytotoxicity rating: 0
[3]; Rate 125 g al/ha
  SETVI phytotoxicity rating: 0
[3]; Rate 250 g al/ha
  SETVI phytotoxicity rating: 0
[4]; Rate 125 g al/ha
  IPOHE phytotoxicity rating: 0
[4]; Rate 250 g al/ha
  IPOHE phytotoxicity rating: 0
[5]; Rate 125 g al/ha
  CHEAL phytotoxicity rating: 50
[5]; Rate 250 g al/ha
  CHEAL phytotoxicity rating: 100
[6]; Rate 125 g al/ha
  DIGSA phytotoxicity rating: 0
[6]; Rate 250 g al/ha
  DIGSA phytotoxicity rating: 0
[7]; Rate 125 g al/ha
  AMARE phytotoxicity rating: 60
[7]; Rate 250 g al/ha
  AMARE phytotoxicity rating: 100
[8]; Rate 125 g al/ha
  CASOB phytotoxicity rating: 0
[8]; Rate 250 g al/ha
  CASOB phytotoxicity rating: 20
[9]; Rate 125 g al/ha
  ABUTH phytotoxicity rating: 50
[9]; Rate 250 g al/ha
  ABUTH phytotoxicity rating: 30
[10]; Rate 125 g al/ha
  CORN crop damage rating: 0
[10]; Rate 250 g al/ha
  CORN crop damage rating: 0
[11]; Rate 125 g al/ha
  RICE crop damage rating: 0
[11]; Rate 250 g al/ha
  RICE crop damage rating: 0
[12]; Rate 125 g al/ha
  SOY crop damage rating: 0
[12]; Rate 250 g al/ha
  SOY crop damage rating: 0
[13]; rate 63 g ai/ha
  phytotoxicity rating AMBEL: 80
[13]; rate 250 g ai/ha
  phytotoxicity rating AMBEL: 20
[14]; rate 63 g ai/ha
  phytotoxicity rating SORHA: 0
[14]; rate 250 g ai/ha
  phytotoxicity rating SORHA: 0
[15]; rate 63 g ai/ha
  phytotoxicity rating ECHCG: 0
[15]; rate 250 g ai/ha
  phytotoxicity rating ECHCG: 0
[16]; rate 63 g ai/ha
  phytotoxicity rating SETVI: 0
[16]; rate 250 g ai/ha
  phytotoxicity rating SETVI: 10
[17]; rate 63 g ai/ha
  phytotoxicity rating IPOHE: 40
[17]; rate 250 g ai/ha
  phytotoxicity rating IPOHE: 100
[18]; rate 63 g ai/ha
  phytotoxicity rating CHEAL: 60
[18]; rate 250 g ai/ha
  phytotoxicity rating CHEAL: 80
[19]; rate 63 g ai/ha
  phytotoxicity rating DIGSA: 0
[19]; rate 250 g ai/ha
  phytotoxicity rating DIGSA: 0
[20]; rate 63 g ai/ha
  phytotoxicity rating AMARE: 80
[20]; rate 250 g ai/ha
  phytotoxicity rating AMARE: 90
[21]; rate 63 g ai/ha
  phytotoxicity rating CASOB: 0
[21]; rate 250 g ai/ha
  phytotoxicity rating CASOB: 75
[22]; rate 63 g ai/ha
  phytotoxicity rating ABUTH: 100
[22]; rate 250 g ai/ha
  phytotoxicity rating ABUTH: 100
[23]; rate 63 g ai/ha
  crop damage rating CORN: 0
[23]; rate 250 g ai/ha
  crop damage rating CORN: 10
[24]; rate 63 g ai/ha
  crop damage rating RICE: 0
[24]; rate 250 g ai/ha
  crop damage rating RICE: 0
[25]; rate 63 g ai/ha
  crop damage rating SOY: 80
[25]; rate 250 g ai/ha
  crop damage rating SOY: 60
